Source: patent US12319648B2, “Fluorinated phenylacetic acid derivatives in a weed control method” (SYNGENTA CROP PROTECTION AG, priority 2019, dated 2025)

Key:
Assay type in all cases: in vivo
[1] = tested on: Amaranthus retoflexus (AMARE); assay: Post-emergence herbicidal glasshouse test; settings: for % phytotoxicity AMARE: comparative post-emergence test; for percentage damage caused to the plant, five-point scale, AMARE: post-emergence, 250 g/ha, 13 days after application
Protocol: (§1) Seeds of a variety of test species are shown in standard soil in pots Amaranthus retoflexus (AMARE), Ipomoea hederacea (IPOHE), Solanum nigrum (SOLNI), Lolium perenne (LOLPE). Echinochloa crus-galli (ECHCG), Setaria faberi (SETFA)). After cultivation for one day (pre-emergence) or after 8 days cultivation (post-emergence) under controlled conditions in a glasshouse (at 24/16° C., day/night; 14 hours light; 65% humidity), the plants are sprayed with an aqueous spray solution derived from the formulation of the technical active ingredient in acetone/water (50:50) solution containing 0.5% Tween 20 (polyoxyethylene sorbitan monolaurate, CAS RN 9005-64-5). Compounds are applied at 250 g/ha unless otherwise stated. The test plants are then grown in a glasshouse under controlled conditions in a glasshouse (at 24/16° C., day/night; 14 hours light; 65% humidity) and watered twice daily. After 13 days for pre and post-emergence, the test is evaluated for the percentage damage caused to the plant. The biological activities are shown in the following table on a five-point scale (5=81-100%; 4=61-80%; 3=41-60%; 2=21-40%; 1=0-20%).
(§2) Using the experimental conditions outlined above, a further test is conducted to compare the herbicidal properties of the difluro containing compound (1.014) with a representative compound (C1) referred to in GB901553. The compounds are applied at 1000 g/ha and 500 g/ha. The test is evaluated for the percentage damage caused to the plant (% phytotoxicity).

[2] = tested on: Echinochloa crus-galli (ECHCG); assay: Post-emergence herbicidal glasshouse test; settings: for % phytotoxicity ECHCG: comparative post-emergence test; for percentage damage caused to the plant, five-point scale, ECHCG: post-emergence, 250 g/ha, 13 days after application
Protocol: as §1, §2

[3] = tested on: Ipomoea hederacea (IPOHE); assay: Post-emergence herbicidal glasshouse test; settings: for % phytotoxicity IPOHE: comparative post-emergence test; for percentage damage caused to the plant, five-point scale, IPOHE: post-emergence, 250 g/ha, 13 days after application
Protocol: as §1, §2

[4] = tested on: Lolium perenne (LOLPE); assay: Post-emergence herbicidal glasshouse test; settings: for % phytotoxicity LOLPE: comparative post-emergence test; for percentage damage caused to the plant, five-point scale, LOLPE: post-emergence, 250 g/ha, 13 days after application
Protocol: as §1, §2

[5] = tested on: Setaria faberi (SETFA); assay: Post-emergence herbicidal glasshouse test; settings: for % phytotoxicity SETFA: comparative post-emergence test; for percentage damage caused to the plant, five-point scale, SETFA: post-emergence, 250 g/ha, 13 days after application
Protocol: as §1, §2

[6] = tested on: Solanum nigrum (SOLNI); assay: Post-emergence herbicidal glasshouse test; settings: for % phytotoxicity SOLNI: comparative post-emergence test; for percentage damage caused to the plant, five-point scale, SOLNI: post-emergence, 250 g/ha, 13 days after application
Protocol: as §1, §2

[7] = tested on: Amaranthus retoflexus (AMARE); assay: Pre-emergence herbicidal glasshouse test; settings: for % phytotoxicity AMARE: comparative pre-emergence test; for percentage damage caused to the plant, five-point scale, AMARE: pre-emergence, 250 g/ha, 13 days after application
Protocol: as §1, §2

[8] = tested on: Echinochloa crus-galli (ECHCG); assay: Pre-emergence herbicidal glasshouse test; settings: for % phytotoxicity ECHCG: comparative pre-emergence test; for percentage damage caused to the plant, five-point scale, ECHCG: pre-emergence, 250 g/ha, 13 days after application
Protocol: as §1, §2

[9] = tested on: Ipomoea hederacea (IPOHE); assay: Pre-emergence herbicidal glasshouse test; settings: for % phytotoxicity IPOHE: comparative pre-emergence test; for percentage damage caused to the plant, five-point scale, IPOHE: pre-emergence, 250 g/ha, 13 days after application
Protocol: as §1, §2

[10] = tested on: Lolium perenne (LOLPE); assay: Pre-emergence herbicidal glasshouse test; settings: for % phytotoxicity LOLPE: comparative pre-emergence test; for percentage damage caused to the plant, five-point scale, LOLPE: pre-emergence, 250 g/ha, 13 days after application
Protocol: as §1, §2

[11] = tested on: Setaria faberi (SETFA); assay: Pre-emergence herbicidal glasshouse test; settings: for % phytotoxicity SETFA: comparative pre-emergence test; for percentage damage caused to the plant, five-point scale, SETFA: pre-emergence, 250 g/ha, 13 days after application
Protocol: as §1, §2

[12] = tested on: Solanum nigrum (SOLNI); assay: Pre-emergence herbicidal glasshouse test; settings: for % phytotoxicity SOLNI: comparative pre-emergence test; for percentage damage caused to the plant, five-point scale, SOLNI: pre-emergence, 250 g/ha, 13 days after application
Protocol: as §1, §2

In the case of `O=C(O)C(F)(F)c1cccc(Cl)c1Cl` [Compound 1.014], the “% phytotoxicity AMARE” value ([1]; 500 g/ha) is reported as 100%, the “% phytotoxicity AMARE” value ([1]; 1000 g/ha) is reported as 100% and the “percentage damage caused to the plant, five-point scale, AMARE” value (from here on “percentage damage caused … AMARE”) [1] is reported as 5 (5=81-100%). The “% phytotoxicity ECHCG” value ([2]; 500 g/ha) was 80%, the “% phytotoxicity ECHCG” value ([2]; 1000 g/ha) was 90% and the “percentage damage caused to the plant, five-point scale, ECHCG” value (from here on “percentage damage caused … ECHCG”) [2] was 5 (5=81-100%). For the same compound, the “% phytotoxicity IPOHE” value ([3]; 500 g/ha) was 90%, the “% phytotoxicity IPOHE” value ([3]; 1000 g/ha) was 90% and the “percentage damage caused to the plant, five-point scale, IPOHE” value (from here on “percentage damage caused … IPOHE”) [3] was 5 (5=81-100%). For the same compound, the “% phytotoxicity LOLPE” value ([4]; 500 g/ha) was 10%, the “% phytotoxicity LOLPE” value ([4]; 1000 g/ha) was 20% and the “percentage damage caused to the plant, five-point scale, LOLPE” value (from here on “percentage damage caused … LOLPE”) [4] was 1 (1=0-20%). The “% phytotoxicity SETFA” value ([5]; 500 g/ha) was 90%, the “% phytotoxicity SETFA” value ([5]; 1000 g/ha) was 90% and the “percentage damage caused to the plant, five-point scale, SETFA” value (from here on “percentage damage caused … SETFA”) [5] was 5 (5=81-100%). The “% phytotoxicity SOLNI” value ([6]; 500 g/ha) was 100%, the “% phytotoxicity SOLNI” value ([6]; 1000 g/ha) was 100% and the “percentage damage caused to the plant, five-point scale, SOLNI” value (from here on “percentage damage caused … SOLNI”) [6] was 5 (5=81-100%). The “% phytotoxicity AMARE” value ([7]; 500 g/ha) was 90%, the “% phytotoxicity AMARE” value ([7]; 1000 g/ha) was 100% and the “percentage damage caused … AMARE” value [7] was 5 (5=81-100%). The “% phytotoxicity ECHCG” value ([8]; 500 g/ha) was 30%, the “% phytotoxicity ECHCG” value ([8]; 1000 g/ha) was 80% and the “percentage damage caused … ECHCG” value [8] was 5 (5=81-100%). For the same compound, the “% phytotoxicity IPOHE” value ([9]; 500 g/ha) was 80%, the “% phytotoxicity IPOHE” value ([9]; 1000 g/ha) was 90% and the “percentage damage caused … IPOHE” value [9] was 5 (5=81-100%). For the same compound, the “% phytotoxicity LOLPE” value ([10]; 500 g/ha) was 10%, the “% phytotoxicity LOLPE” value ([10]; 1000 g/ha) was 40% and the “percentage damage caused … LOLPE” value [10] was 1 (1=0-20%). The “% phytotoxicity SETFA” value ([11]; 500 g/ha) was 90%, the “% phytotoxicity SETFA” value ([11]; 1000 g/ha) was 90% and the “percentage damage caused … SETFA” value [11] was 4 (4=61-80%). The “% phytotoxicity SOLNI” value ([12]; 500 g/ha) was 100%, the “% phytotoxicity SOLNI” value ([12]; 1000 g/ha) was 100% and the “percentage damage caused … SOLNI” value [12] was 5 (5=81-100%).

With `O=C(O)C(F)(F)c1cccc(Cl)c1F` [Compound 1.029] the “percentage damage caused … AMARE” value [1] was 5 (5=81-100%), the “percentage damage caused … ECHCG” value [2] was 2 (2=21-40%) and the “percentage damage caused … IPOHE” value [3] was 3 (3=41-60%). The “percentage damage caused … LOLPE” value [4] was 1 (1=0-20%), the “percentage damage caused … SETFA” value [5] was 3 (3=41-60%) and the “percentage damage caused … SOLNI” value [6] was 4 (4=61-80%). For the same compound, the “percentage damage caused … AMARE” value [7] was 5 (5=81-100%), the “percentage damage caused … ECHCG” value [8] was 1 (1=0-20%) and the “percentage damage caused … IPOHE” value [9] was 3 (3=41-60%). The “percentage damage caused … LOLPE” value [10] was 2 (2=21-40%), the “percentage damage caused … SETFA” value [11] was 2 (2=21-40%) and the “percentage damage caused … SOLNI” value [12] was 5 (5=81-100%).

With `O=C(O)C(F)(F)c1cccc(F)c1F` [Compound 1.031] the “percentage damage caused … AMARE” value [1] was 3 (3=41-60%), the “percentage damage caused … ECHCG” value [2] was 1 (1=0-20%) and the “percentage damage caused … IPOHE” value [3] was 3 (3=41-60%). The “percentage damage caused … LOLPE” value [4] was 1 (1=0-20%), the “percentage damage caused … SETFA” value [5] was 1 (1=0-20%) and the “percentage damage caused … SOLNI” value [6] was 3 (3=41-60%). For the same compound, the “percentage damage caused … AMARE” value [7] was 1 (1=0-20%), the “percentage damage caused … ECHCG” value [8] was 1 (1=0-20%) and the “percentage damage caused … IPOHE” value [9] was 3 (3=41-60%). The “percentage damage caused … LOLPE” value [10] was 1 (1=0-20%), the “percentage damage caused … SETFA” value [11] was 1 (1=0-20%) and the “percentage damage caused … SOLNI” value [12] was 1 (1=0-20%).

In the case of `O=C(O)C(F)(F)c1cccc(F)c1Br` [Compound 1.032], the “percentage damage caused … AMARE” value [1] is reported as 4 (4=61-80%), the “percentage damage caused … ECHCG” value [2] is reported as 1 (1=0-20%) and the “percentage damage caused … IPOHE” value [3] is reported as 4 (4=61-80%). The “percentage damage caused … LOLPE” value [4] was 1 (1=0-20%), the “percentage damage caused … SETFA” value [5] was 1 (1=0-20%) and the “percentage damage caused … SOLNI” value [6] was 4 (4=61-80%). For the same compound, the “percentage damage caused … AMARE” value [7] was 4 (4=61-80%), the “percentage damage caused … ECHCG” value [8] was 1 (1=0-20%) and the “percentage damage caused … IPOHE” value [9] was 4 (4=61-80%). The “percentage damage caused … LOLPE” value [10] was 1 (1=0-20%), the “percentage damage caused … SETFA” value [11] was 1 (1=0-20%) and the “percentage damage caused … SOLNI” value [12] was 4 (4=61-80%).
